Experiments:
Adenosine receptor A2a = Adenosine receptor A2a (Rattus norvegicus, UniProt P30543)
Adenosine receptor A1 = target: T1, Adenosine receptor A1 (Rattus norvegicus, UniProt P25099)
T1 sequence (P25099 whole entry): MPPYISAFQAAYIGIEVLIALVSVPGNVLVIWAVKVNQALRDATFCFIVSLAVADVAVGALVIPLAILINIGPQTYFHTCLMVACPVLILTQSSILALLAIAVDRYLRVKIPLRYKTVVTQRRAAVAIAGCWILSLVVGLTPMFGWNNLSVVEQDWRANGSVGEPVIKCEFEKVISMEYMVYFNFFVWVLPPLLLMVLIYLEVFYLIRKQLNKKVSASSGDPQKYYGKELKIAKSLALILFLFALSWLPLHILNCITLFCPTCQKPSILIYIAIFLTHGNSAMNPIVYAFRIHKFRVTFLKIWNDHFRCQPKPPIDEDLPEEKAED

Chain of Adenosine receptor A2a (P30543 whole entry): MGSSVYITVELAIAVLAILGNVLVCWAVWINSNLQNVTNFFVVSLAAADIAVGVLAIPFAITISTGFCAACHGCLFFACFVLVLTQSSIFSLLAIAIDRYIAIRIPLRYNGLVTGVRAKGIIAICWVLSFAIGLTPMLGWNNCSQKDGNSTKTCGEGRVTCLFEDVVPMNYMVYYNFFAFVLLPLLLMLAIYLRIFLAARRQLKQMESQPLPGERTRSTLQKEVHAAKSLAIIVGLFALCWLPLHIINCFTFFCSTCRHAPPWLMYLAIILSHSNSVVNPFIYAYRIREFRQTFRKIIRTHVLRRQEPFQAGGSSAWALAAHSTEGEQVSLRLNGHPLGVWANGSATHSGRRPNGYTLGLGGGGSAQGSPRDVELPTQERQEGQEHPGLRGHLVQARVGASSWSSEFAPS

| Compound | Ki (Adenosine receptor A2a) [µM] | Ki (Adenosine receptor A1) [µM] |
| --- | --- | --- |
| C[S+](CC[C@H](N)C(=O)[O-])C[C@H]1O[C@@H](n2cnc3c(N)ncnc32)[C@H](O)[C@@H]1O (stereo partly drawn) [(2S)-2-amino-4-({[(2S,3S,4R,5R)-5-(6-amino-9H-purin-9-yl)-3,4-dihydroxyoxolan-2-yl]methyl}(methyl)sulfanylium)butanoate] | 2.78 | 0.675 |
| Cc1cn([C@H]2C[C@H](O)[C@@H](CO)O2)c(=O)[nH]c1=O [thymidine] | > 10 | > 10 |
| Nc1nc(S)c2ncn(C3OC(CO)C(O)C3O)c2n1 (stereo not given) [2-azanyl-9-[5-(hydroxymethyl)-3,4-bis(oxidanyl)oxolan-2-yl]-3H-purine-6-thione] | > 10 | > 10 |
| Cn1cnc2[nH]c(=O)[nH]c(=O)c21 [7-Methylxanthine] | > 10 | > 10 |
| CCCCCC[C@H]([C@H](C)O)n1cnc2c(N)ncnc21 (relative stereo) [3-(6-amino-9H-purin-9-yl)nonan-2-ol] | > 10 | 0.455 |
| Nc1ccn([C@@H]2O[C@H](COP(=O)(O)OP(=O)(O)O)[C@@H](O)[C@H]2O)c(=O)n1 [5'-CDP] | > 10 | > 10 |
| Nc1ncnc2c1ncn2[C@@H]1O[C@H](CO)C[C@H]1O [3'-Deoxyadenosine (cordycepin)] | > 10 | > 10 |
| OCC1OC(n2cnc3c(S)ncnc32)C(O)C1O (stereo not given) [NSC_1867] |  | > 10 |
| Cn1cnc2c(=O)[nH]c(=O)n(C)c21 [3,9-dimethyl-3,9-dihydro-1h-purine-2,6-dione] | > 10 | > 10 |
| O=c1ccn(C2OC(COP(=O)(O)OP(=O)(O)O)C(O)C2O)c(=O)[nH]1 (stereo not given) [hydrogen ({[5-(2,4-dioxo-1,2,3,4-tetrahydropyrimidin-1-yl)-3,4-dihydroxyoxolan-2-yl]methylphosphonato}oxy)phosphonate] | > 10 | > 10 |
| Nc1ncnc2c1nc(Br)n2C1OC(CO)C(O)C1O (stereo not given) [8-Bromoadenosine] | 22.7 | > 10 |
| Cn1c(=O)[nH]c2c(ncn2C)c1=O [1,9-Dimethylxanthine] | > 10 | > 10 |
| O=c1[nH]c(=O)c2ncn(C3OC(COP(=O)(O)O)C(O)C3O)c2[nH]1 (stereo not given) [CAS_146-80-5] | > 10 | > 10 |
| CCNC(=O)[C@H]1O[C@@H](n2cnc3c(=O)[nH]cnc32)[C@H](O)[C@@H]1O [5'-N-ethylcarboxamidoinosine] | > 10 | > 10 |
| Nc1ncnc2c1ncn2[C@H]1C[C@H](O)[C@@H](CO)O1 [2'deoxyadenosine] | > 10 | > 10 |
| Nc1ncnc2c1ncn2[C@@H]1O[C@H](COP(=O)(O)O)[C@@H](O)[C@H]1O [adenosine 5 -monophosphate] | > 10 |  |
| Nc1ncnc2c1ncn2[C@@]1(CO)O[C@H](CO)[C@@H](O)[C@H]1O [beta-D-Psicofuranosyladenine] | > 10 | > 10 |
| Nc1nc2c(ncn2[C@H]2O[C@@H](COP(=O)(O)O)[C@H](O)[C@@H]2O)c(=O)[nH]1 [NSC_6804] | 85.1 | 27.8 |
| CO[C@@H]1[C@H](O)[C@@H](CO)O[C@H]1n1cnc2c(N)ncnc21 | > 10 | > 10 |
| O=c1[nH]c(=O)c2[nH]c(Cl)nc2[nH]1 [CAS_13548-68-0] | > 10 | > 10 |
| Nc1ncnc2c1N([C@H]1O[C@@H](CO)[C@H](O)[C@@H]1O)CN2 [T-7-Riboside] |  | 27 |
| NCC1OC(n2cnc3c(N)ncnc32)C(O)C1O (stereo not given) [2-Aminomethyl-5-(6-amino-purin-9-yl)-tetrahydro-furan-3,4-diol] | 38.5 |  |

From BindingDB's records for PubMed 8022403 (National Institute of Diabetes, Digestive and Kidney …, 1994)
